The first experiment addresses T1, human recombinant mGluR5 (Homo sapiens, UniProt P41594).
T1 construct: expressed in transfected cells; host or cells: HEK 293 cell line, cultured with tetracycline, hygromycin and geneticin; tetracycline is withdrawn 3-7 days before the assay
As to the kind of experiment: positive modulation of mGluR5, calcium based FLIPR assay. In kind it is cell-based.
Settings: not given
Here is the method: The positive modulation of mGluR5 is measured in a HEK 293 cell line expressing human recombinant mGluR5 and is detected with calcium based FLIPR assay. The cells are cultured with DMEM supplemented with 10% FCS, 2 μg/mL tetracycline, 100 μg/mL hygromycin and 500 μg/mL gneticin. The cell culture media is exchanged for tetracycline-free cell culture media 3-7 days before the assay. One day before the assay the cell culture medium is exchanged to DMEM without glutamine and phenol red and supplemented with 10% FCS, 100 μg/mL hygromycin and 500 μg/mL geneticin. On the assay day, the medium of the subconfluent cultures is removed and the cells are detached by addition of 2.5 ml EDTA (0.02%) per 175 cm2 culture flask for 1 minute. The cells are resuspend in Ringer solution (140 mM NaCl, 5 mM KCl, 2.5 mM CaCl2, 1.5 mM MgCl2, 5 mM Glucose, 10 mM Hepes; adjusted to pH 7.4 with NaOH), pooled and Ringer solution added to adjust the volume to 50 mL. The cell suspension is centrifuged for 5 min at 1500 U/min (425 g). The supernatant is removed and the cells washed a second time with 50 ml fresh Ringer solution and centrifuged again as before. The supernatant is again removed and the pellet resuspended in Ringer solution to 1,000,000 cells/ml (1×10^6 cells/mL). The cells are plated onto BD BioCoat Poly-D-Lysine 384 well plates (20.000 cells/well; 20 μl/well). The lid covered plates are then incubated until use at 37° C./10% CO2. For dye loading, 20 μl of Calcium-4 assay kit solution (prepared according to the manufacturer's description in Ringer solution) are added to the cells and the plates are incubated for 80 min 37° C. and then 10 min at room temperature. • Controls, Compound dilution and assay execution: • Each assay plate contained wells with “high” and “low” controls:
Low controls 1% DMSO/ringer solution+basal glutamate activation (defined as 100% CTL).
High controls 10 μM CDPPB+basal glutamate activation (defined as 200% CTL).
Test compounds are dissolved and diluted in DMSO to 100-fold the desired concentrations. In a second step, the compounds are diluted in Ringer solution such that the compounds are 4-fold more concentrated than the desired final assay concentration. The final DMSO concentration was 1%.
20 μl of each compound solution are then transferred to the assay plate and the Ca2+ kinetic is measured to determine any intrinsic compound activity. After 5 min incubation in the FLIPR device, the second stimulation with 20 μl of glutamate in Ringer solution (glutamate concentration adjusted to approximately 5% basal stimulation of the maximal possible glutamate effect) is added and the kinetic Ca2+ response of the wells was measured for the modulation effect.
The peak height of the Ca release related fluorescence signal (9-66) is used for the EC50. The EC50 of the modulation is calculated over a nonlinear regression with GraphPad Prism (Table 1).
T1 sequence (P41594 21-1212): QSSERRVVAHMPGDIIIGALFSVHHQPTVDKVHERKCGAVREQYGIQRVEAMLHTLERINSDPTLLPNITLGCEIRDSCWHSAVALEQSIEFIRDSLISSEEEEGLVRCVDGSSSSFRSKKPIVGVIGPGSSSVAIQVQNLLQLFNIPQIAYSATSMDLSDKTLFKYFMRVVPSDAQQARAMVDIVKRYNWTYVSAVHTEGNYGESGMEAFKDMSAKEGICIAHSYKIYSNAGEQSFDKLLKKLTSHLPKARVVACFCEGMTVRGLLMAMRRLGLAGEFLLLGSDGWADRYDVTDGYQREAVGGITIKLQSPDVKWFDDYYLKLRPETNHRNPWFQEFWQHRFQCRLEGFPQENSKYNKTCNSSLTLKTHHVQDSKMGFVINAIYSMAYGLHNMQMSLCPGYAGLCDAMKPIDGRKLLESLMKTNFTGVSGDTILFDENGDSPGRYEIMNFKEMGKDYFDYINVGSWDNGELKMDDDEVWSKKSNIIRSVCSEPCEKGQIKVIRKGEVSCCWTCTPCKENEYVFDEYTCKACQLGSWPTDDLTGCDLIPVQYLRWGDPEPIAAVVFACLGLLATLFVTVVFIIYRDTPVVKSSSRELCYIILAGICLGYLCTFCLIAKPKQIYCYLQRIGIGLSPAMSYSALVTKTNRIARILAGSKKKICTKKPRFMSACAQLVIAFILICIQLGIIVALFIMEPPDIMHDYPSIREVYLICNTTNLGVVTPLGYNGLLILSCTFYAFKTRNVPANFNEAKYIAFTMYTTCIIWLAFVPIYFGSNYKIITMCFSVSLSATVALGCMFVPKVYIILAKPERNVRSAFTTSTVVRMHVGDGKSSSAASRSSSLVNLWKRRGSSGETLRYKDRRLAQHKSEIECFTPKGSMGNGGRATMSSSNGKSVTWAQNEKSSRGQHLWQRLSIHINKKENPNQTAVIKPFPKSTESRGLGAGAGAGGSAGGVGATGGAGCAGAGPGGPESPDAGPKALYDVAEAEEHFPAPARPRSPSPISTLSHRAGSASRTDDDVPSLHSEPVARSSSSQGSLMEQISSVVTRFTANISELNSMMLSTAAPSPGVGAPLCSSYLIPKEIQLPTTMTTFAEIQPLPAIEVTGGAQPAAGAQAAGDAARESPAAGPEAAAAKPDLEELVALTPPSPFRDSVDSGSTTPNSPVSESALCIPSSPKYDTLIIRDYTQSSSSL
`O=C(Cn1nc(-c2ccc(F)cc2)nc1-c1ccc(F)cc1)N1CCC(Nc2ccccc2)CC1` [Example 7.02.20.]: the EC50 amounted to 1530 nM.

The experiment is the same for the next values; noted with them: EC50 of the modulation; HEK 293 cell line expressing human recombinant mGluR5; peak height of Ca fluorescence signal after glutamate at approx. 5% basal stimulation; read-out: EC50.
Regarding `O=C(Cn1nc(-c2ccc(F)cc2)nc1-c1ccc(F)cc1)N1CCN(c2ncnc3ccccc23)CC1` [07.03.141^], the concentration giving a half-maximal response (EC50) amounted to 1120 nM.

As for `O=C(Cn1nc(-c2ccc(F)cc2)nc1-c1ccc(F)cc1)N1CCN(c2ccccn2)C(=O)C1` [Example 7.01.01., 4-(2-(3,5-bis-(4-Fluoro-phenyl)-(1,2,4)triazol-1-yl)-acetyl)-1-pyridin-2-yl-piperazin-2-one], the EC50 was 212 nM.

`O=C(Cn1nc(-c2ccc(F)cc2)nc1-c1ccc(F)cc1)N1CCN(c2nccs2)C(=O)C1` [Example 7.01.02.]: the EC50 worked out at 118 nM.

Consider `COc1cccc(N2CCN(C(=O)Cn3nc(-c4ccc(F)cc4)nc3-c3ccc(F)cc3)CC2=O)c1` [Example 7.01.03.], for which the EC50 was determined as 283 nM.

With `O=C(Cn1nc(-c2ccc(F)cc2)nc1-c1ccc(F)cc1)N1CCC(c2noc3ccccc23)CC1` [Example 7.02.01., 1-(4-Benzo[d]isoxazol-3-yl-piperidin-1-yl)-2-(3,5-bis-(4-fluoro-phenyl)-(1,2,4)triazol-1-yl)-ethanone], the EC50 turned out to be 178 nM.

For the compound `CC(C)c1noc(C2CCN(C(=O)Cn3nc(-c4ccc(F)cc4)nc3-c3ccc(F)cc3)CC2)n1` [Example 7.02.03.], the EC50 was determined as 1220 nM.

Regarding `O=C(Cn1nc(-c2ccc(F)cc2)nc1-c1ccc(F)cc1)N1Cc2cn[nH]c2C1` [Example 7.02.04.], the EC50 is 818 nM.

In the case of `O=C(Cn1nc(-c2ccc(F)cc2)nc1-c1ccc(F)cc1)N1CCc2cc(F)ccc2C1` [Example 7.02.05.], the EC50 was determined as 900 nM.

Regarding `O=C(Cn1nc(-c2ccc(F)cc2)nc1-c1ccc(F)cc1)N1CCC(OCC2CC2)CC1` [Example 7.02.06.], the EC50 was found to be 1400 nM.

Turning to `CC(=O)Nc1nc2c(s1)CCN(C(=O)Cn1nc(-c3ccc(F)cc3)nc1-c1ccc(F)cc1)CC2` [Example 7.02.07.], the EC50 was determined as 1200 nM.

In the case of `COc1cccc2c1CCN(C(=O)Cn1nc(-c3ccc(F)cc3)nc1-c1ccc(F)cc1)C2` [Example 7.02.08.], the EC50 came to 666 nM.

For `O=C(Cn1nc(-c2ccc(F)cc2)nc1-c1ccc(F)cc1)N1CCc2cc(C(F)(F)F)ccc2C1` [Example 7.02.09.], the EC50 turned out to be 992 nM.

Take `O=C(Cn1nc(-c2ccc(F)cc2)nc1-c1ccc(F)cc1)N1CCc2cccc(F)c2C1` [Example 7.02.10.]: the EC50 is 965 nM.

Regarding `COC(=O)c1ccc2c(c1)CCN(C(=O)Cn1nc(-c3ccc(F)cc3)nc1-c1ccc(F)cc1)CC2` [Example 7.02.11.], the EC50 amounted to 376 nM.

In the case of `O=C(Cn1nc(-c2ccc(F)cc2)nc1-c1ccc(F)cc1)N1CCc2ccccc2CC1` [Example 7.02.12.], the EC50 came to 1020 nM.

Turning to `O=C(Cn1nc(-c2ccc(F)cc2)nc1-c1ccc(F)cc1)N1CCN(c2cccc(F)c2)C(=O)C1` [Example 7.02.13.], the EC50 came to 544 nM.

With `O=C(Cn1nc(-c2ccc(F)cc2)nc1-c1ccc(F)cc1)N1CCN(c2ccccc2F)C(=O)C1` [Example 7.02.14.], the EC50 was 537 nM.

Consider `CCNC(=O)Nc1nc2c(s1)CN(C(=O)Cn1nc(-c3ccc(F)cc3)nc1-c1ccc(F)cc1)CC2` [Example 7.02.15.], for which the EC50 amounted to 646 nM.

With `CC(C)NC(=O)Nc1nc2c(s1)CN(C(=O)Cn1nc(-c3ccc(F)cc3)nc1-c1ccc(F)cc1)CC2` [Example 7.02.16.], the EC50 came out at 1360 nM.

For `CNC(=O)Nc1nc2c(s1)CN(C(=O)Cn1nc(-c3ccc(F)cc3)nc1-c1ccc(F)cc1)CC2` [Example 7.02.17.], the EC50 was determined as 1060 nM.

In the case of `O=C(Cn1nc(-c2ccc(F)cc2)nc1-c1ccc(F)cc1)N1CCC(c2nccs2)CC1` [Example 7.02.18.], the EC50 came out at 516 nM.

As to `O=C(Cn1nc(-c2ccc(F)cc2)nc1-c1ccc(F)cc1)N1CCC(c2ncc(-c3ccccc3)s2)CC1` [Example 7.02.19.], the EC50 came to 1990 nM.

`O=C(Cn1nc(-c2ccc(F)cc2)nc1-c1ccc(F)cc1)N1CCC(c2nnc(-c3ccc(F)cc3)o2)CC1` [Example 7.02.22.]: the EC50 amounted to 746 nM.

As to `Cc1nc2c(s1)CN(C(=O)Cn1nc(-c3ccc(F)cc3)nc1-c1ccc(F)cc1)C2` [Example 7.02.23.], the EC50 came to 278 nM.

For the compound `N#Cc1ccc(Cl)cc1NC1CCN(C(=O)Cn2nc(-c3ccc(F)cc3)nc2-c2ccc(F)cc2)CC1` [Example 7.02.24.], the EC50 is 560 nM.

As for `CN1C(=O)N(C2CCN(C(=O)Cn3nc(-c4ccc(F)cc4)nc3-c3ccc(F)cc3)CC2)Cc2ccccc21` [Example 7.02.25.], the EC50 was 1860 nM.

Turning to `Nc1ccc2c(c1)CCN(C(=O)Cn1nc(-c3ccc(F)cc3)nc1-c1ccc(F)cc1)CC2` [Example 7.02.26.], the EC50 stood at 518 nM.

For the compound `O=C(Cn1nc(-c2ccc(F)cc2)nc1-c1ccc(F)cc1)N1CCc2c(F)ccc(F)c2C1` [Example 7.02.27.], the EC50 came out at 1830 nM.

Take `O=C(Cn1nc(-c2ccc(F)cc2)nc1-c1ccc(F)cc1)N1CCC(c2noc3ccc(F)cc23)CC1` [Example 7.02.28.]: the EC50 was 644 nM.

In the case of `C=CCNC(=O)Nc1nc2c(s1)CN(C(=O)Cn1nc(-c3ccc(F)cc3)nc1-c1ccc(F)cc1)CC2` [Example 7.02.29.], the EC50 came out at 504 nM.

As for `O=C(Cn1nc(-c2ccc(F)cc2)nc1-c1ccc(F)cc1)N1CCC(Oc2ccc3c(c2)OCO3)CC1` [Example 7.02.30.], the EC50 was found to be 932 nM.

Consider `O=C(Cn1nc(-c2ccc(F)cc2)nc1-c1ccc(F)cc1)N1CCC(n2nc(-c3cccs3)ccc2=O)CC1` [Example 7.02.31.], for which the EC50 was found to be 1780 nM.

On to `CC(C)c1ncc2c(n1)CCN(C(=O)Cn1nc(-c3ccc(F)cc3)nc1-c1ccc(F)cc1)C2` [Example 7.02.32.], for which the concentration giving a half-maximal response (EC50) was determined as 468 nM.

In the case of `COC(=O)c1ccc2c(c1)CCN(C(=O)Cn1nc(-c3ccc(F)cc3)nc1-c1ccc(F)cc1)C2` [Example 7.02.33.], the EC50 came out at 309 nM.

As for `Cn1c(=O)n(C2(C)CCN(C(=O)Cn3nc(-c4ccc(F)cc4)nc3-c3ccc(F)cc3)CC2)c2ccccc21` [Example 7.02.34.], the EC50 came to 1460 nM.

As for `O=C(Cn1nc(-c2ccc(F)cc2)nc1-c1ccc(F)cc1)N1CCC(N2Cc3c(Cl)cccc3NC2=O)CC1` [Example 7.02.35.], the EC50 was 1420 nM.

In the case of `COc1ccc2c(c1)CCN(C(=O)Cn1nc(-c3ccc(F)cc3)nc1-c1ccc(F)cc1)C2C` (stereo not shown) [Example 7.02.36.], the EC50 came out at 1090 nM.

For the compound `O=C(Cn1nc(-c2ccc(F)cc2)nc1-c1ccc(F)cc1)N1CCc2ncnc(-c3ccccc3)c2CC1` [Example 7.02.37.], the EC50 came to 708 nM.

Take `Cc1noc(C2CCN(C(=O)Cn3nc(-c4ccc(F)cc4)nc3-c3ccc(F)cc3)CC2)n1` [Example 7.02.38.]: the EC50 came out at 1150 nM.

On to `COc1ccc2c(c1)CCN(C(=O)Cn1nc(-c3ccc(F)cc3)nc1-c1ccc(F)cc1)CC2` [Example 7.02.39.], for which the EC50 was 279 nM.

Regarding `O=C(Cn1nc(-c2ccc(F)cc2)nc1-c1ccc(F)cc1)N1Cc2ccncc2C1` [Example 7.02.40.], the EC50 is 1760 nM.

As to `COc1ccc2c(c1)CN(C(=O)Cn1nc(-c3ccc(F)cc3)nc1-c1ccc(F)cc1)CC2` [Example 7.02.41.], the EC50 came out at 1270 nM.

`Nc1nc2c(s1)CN(C(=O)Cn1nc(-c3ccc(F)cc3)nc1-c1ccc(F)cc1)CC2` [Example 7.02.42.]: the EC50 is 1240 nM.

With `O=C(Cn1nc(-c2ccc(F)cc2)nc1-c1ccc(F)cc1)N1CCc2ncsc2C1` [Example 7.02.43.], the 50% effective concentration (EC50) was 1640 nM.

Consider `COc1ccc2c(c1)CCN(C(=O)Cn1nc(-c3ccc(F)cc3)nc1-c1ccc(F)cc1)C2` [Example 7.02.44.], for which the EC50 stood at 211 nM.

In the case of `Nc1nnc(C2CCN(C(=O)Cn3nc(-c4ccc(F)cc4)nc3-c3ccc(F)cc3)CC2)o1` [Example 7.02.45.], the EC50 stood at 1000 nM.

As to `COc1cccc2c1CN(C(=O)Cn1nc(-c3ccc(F)cc3)nc1-c1ccc(F)cc1)C2` [Example 7.02.46.], the 50% effective concentration (EC50) is 381 nM.

Consider `COc1ccc2c(c1)CN(C(=O)Cn1nc(-c3ccc(F)cc3)nc1-c1ccc(F)cc1)C2` [Example 7.02.47.], for which the EC50 was found to be 206 nM.

The values are drawn from US8642774B2, “Compounds” (Boehringer Ingelheim International GmbH, priority 2011, dated 2014).
